What was measured:
[1] = biological target: T1, human metabotropic glutamate 7 receptor (hmGlu7) (Homo sapiens, UniProt Q14831); assay: mGlu7 assay on HEK-expressing human mGlu7: fluorescent cell based Ca2+ mobilization assay (FLIPR), inhibition of EC80 L-AP4 response; details: HEK-293 cells expressing hmGlu7; EC80 L-AP4 stimulation; mean of at least three independent experiments in duplicate; read-out: Ca2+ Flux (mean IC50)
T1 construct: expressed in transfected cells
Method in brief: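 HEK293 cells stably expressing hmGlu7 with a calcium-redirecting G protein were Fluo4-AM-loaded and assayed at pH 7.4 in HEPES buffer. Compounds were monitored for 180 s for agonism, then cells were challenged with EC80 L-AP4 for 110 s. IC50 was obtained from four-parameter fits, as the mean of ≥3 experiments run in duplicate.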

T1 sequence (Q14831 35-922 isoform Q14831-2): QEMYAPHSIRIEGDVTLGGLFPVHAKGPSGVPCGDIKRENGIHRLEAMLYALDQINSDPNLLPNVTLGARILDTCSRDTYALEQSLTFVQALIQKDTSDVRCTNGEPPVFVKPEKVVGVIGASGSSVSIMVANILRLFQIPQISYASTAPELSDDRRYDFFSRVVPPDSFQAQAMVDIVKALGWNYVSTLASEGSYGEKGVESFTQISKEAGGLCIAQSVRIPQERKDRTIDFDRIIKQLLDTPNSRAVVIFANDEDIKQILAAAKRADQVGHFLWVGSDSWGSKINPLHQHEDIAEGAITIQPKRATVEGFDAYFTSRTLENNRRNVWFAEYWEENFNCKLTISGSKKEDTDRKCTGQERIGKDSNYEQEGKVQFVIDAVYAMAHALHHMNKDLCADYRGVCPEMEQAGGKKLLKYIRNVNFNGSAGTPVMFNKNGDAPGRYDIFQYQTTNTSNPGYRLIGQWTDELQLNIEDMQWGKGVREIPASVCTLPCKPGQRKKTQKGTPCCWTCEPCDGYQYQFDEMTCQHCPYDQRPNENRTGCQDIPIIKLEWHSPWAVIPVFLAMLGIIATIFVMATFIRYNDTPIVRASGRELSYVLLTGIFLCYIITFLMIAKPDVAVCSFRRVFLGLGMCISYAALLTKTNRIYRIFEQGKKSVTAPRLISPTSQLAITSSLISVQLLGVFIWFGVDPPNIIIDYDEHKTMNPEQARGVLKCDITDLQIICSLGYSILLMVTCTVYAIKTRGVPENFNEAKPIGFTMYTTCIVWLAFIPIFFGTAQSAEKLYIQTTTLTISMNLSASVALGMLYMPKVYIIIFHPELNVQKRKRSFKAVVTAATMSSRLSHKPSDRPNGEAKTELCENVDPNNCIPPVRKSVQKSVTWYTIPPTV

Row | melting point | IC50 [1] | SMILES
1 | 202 °C | 0.1 to 1 µM | COc1ccccc1-n1ncc2c(C)n(-c3ccc(C)cc3)c(C)c2c1=O [1-2, 2-(2-Methoxyphenyl)-5,7-dimethyl-6-p-tolyl-2,6-dihydro-1H-pyrrolo[3,4-d]pyridazin-1-one]
2 | 226 °C | 0.1 to 1 µM | Cc1c2cnn(-c3ccccc3F)c(=O)c2c(C)n1-c1ccccc1 [1-21, 2-(2-Fluorophenyl)-5,7-dimethyl-6-phenyl-2,6-dihydro-1H-pyrrolo [3,4-d]pyridazin-1-one]
3 | 213 to 215 °C | < 0.1 µM | COc1cccc(-n2c(C)c3cnn(-c4ccccc4)c(=O)c3c2C)c1 [1-26, 6-(3-Methoxyphenyl)-5,7-dimethyl-2-phenyl-2,6-dihydro-1H-pyrrolo[3,4-d]pyridazin-1-one]
4 | 202 to 204 °C | 0.1 to 1 µM | CC(=O)c1cccc(-n2c(C)c3cnn(-c4ccccc4)c(=O)c3c2C)c1 [1-36, 6-(3-Acetylphenyl)-5,7-dimethyl-2-phenyl-2,6-dihydro-1H-pyrrolo [3,4-d]pyridazin-1-one]
5 | 116 to 119 °C | 0.1 to 1 µM | COCCNc1cccc(-n2c(C)c3cnn(-c4ccccc4)c(=O)c3c2C)c1 [1-43, 6-(3-(2-Methoxyethylamino)phenyl)-5,7-dimethyl-2-phenyl-2,6-dihydro-1H-pyrrolo[3,4-d]pyridazin-1-one]
6 | 252 to 254 °C | 1 to 10 µM | Cc1c2cnn(-c3ccccc3)c(=O)c2c(C)n1-c1cccc(O)c1 [1-51, 6-(3-Hydroxyphenyl)-5,7-dimethyl-2-phenyl-2,6-dihydro-1H-pyrrolo[3,4-d]pyridazin-1-one]
7 | 106 to 109 °C | 0.1 to 1 µM | Cc1c2cnn(-c3ccccn3)c(=O)c2c(C)n1-c1cccc(-c2ccccc2)c1 [1-76, 6-([1,1′-Biphenyl]-3-yl)-5,7-dimethyl-2-(pyridin-2-yl)-2,6-dihydro-1H-pyrrolo[3,4-d]pyridazin-1-one]
8 | 145 to 155 °C | 0.1 to 1 µM | COc1cccc(-n2c(C)c3cnn(-c4ccc(CN)cc4)c(=O)c3c2C)c1 [1-88, 2-(4-(Aminomethyl)phenyl)-6-(3-methoxyphenyl)-5,7-dimethyl-2,6-dihydro-1H-pyrrolo[3,4-d]pyridazin-1-one]
9 | < 85 °C | 0.1 to 1 µM | CCN(CC)c1cccc(-n2c(C)c3cnn(-c4ccccn4)c(=O)c3c2C)c1 [1-100, 6-(3-(Diethylamino)phenyl)-5,7-dimethyl-2-(pyridin-2-yl)-2,6-dihydro-1H-pyrrolo[3,4-d]pyridazin-1-one]
10 | 228 to 229 °C | 0.1 to 1 µM | Cc1c2cnn(-c3ccccc3)c(=O)c2c(C)n1-c1cccc(N2CCCC2)c1 [1-101, 5,7-Dimethyl-2-phenyl-6-(3-(pyrrolidin-1-yl)phenyl)-2,6-dihydro-1H-pyrrolo[3,4-d]pyridazin-1-one]
11 | 150 to 154 °C | 0.1 to 1 µM | CNCc1ccc(-n2ncc3c(C)n(-c4cccc(OC)c4)c(C)c3c2=O)cc1 [1-109, 6-(3-Methoxyphenyl)-5,7-dimethyl-2-(4-((methylamino)methyl)phenyl)-2,6-dihydro-1H-pyrrolo[3,4-d]pyridazin-1-one]
12 | 95 to 97 °C | 1 to 10 µM | COc1cccc(-n2c(C)c3cnn(-c4cc(OC)ccn4)c(=O)c3c2C)c1 [1-123]
13 | 97 to 99 °C | 0.1 to 1 µM | COc1cccc(-n2c(C)c3cnn(-c4ccc(C#N)cc4)c(=O)c3c2C)c1 [1-126]
14 | 207 to 209 °C | 0.1 to 1 µM | COc1cccc(-n2c(C)c3cnn(-c4ccc(O)nc4)c(=O)c3c2C)c1 [1-131, 2-(6-Hydroxypyridin-3-yl)-6-(3-methoxyphenyl)-5,7-dimethyl-2,6-dihydro-1H-pyrrolo[3,4-d]pyridazin-1-one]
15 | 86 to 90 °C | 0.1 to 1 µM | CCOC(=O)c1cccc(-n2c(C)c3cnn(-c4ccccn4)c(=O)c3c2C)c1 [1-133]
16 | 103 to 108 °C | < 0.1 µM | COc1cccc(-n2c(C)c3cnn(-c4ccc(C(C)(C)O)cc4)c(=O)c3c2C)c1 [1-135, 2-(4-(2-Hydroxypropan-2-yl)phenyl)-6-(3-methoxyphenyl)-5,7-dimethyl-2,6-dihydro-1H-pyrrolo[3,4-d]pyridazin-1-one]
17 | 192 to 195 °C | < 0.1 µM | COc1cccc(-n2c(C)c3cnn(-c4ccc(C(C)O)cc4)c(=O)c3c2C)c1 (centres unmarked) [1-138, 2-(4-(1-Hydroxyethyl)phenyl)-6-(3-methoxyphenyl)-5,7-dimethyl-2,6-dihydro-1H-pyrrolo[3,4-d]pyridazin-1-one]
18 | 190 to 192 °C | 1 to 10 µM | O=c1c2cn(-c3cccc(N4CCC4)c3)cc2cnn1-c1ccccn1 [1-188, 6-(3-(Azetidin-1-yl)phenyl)-2-(pyridin-2-yl)-2,6-dihydro-1H-pyrrolo[3,4-d]pyridazin-1-one]
19 | 173 °C | 0.1 to 1 µM | Cc1c2cnn(-c3ccccn3)c(=O)c2c(C)n1-c1cccc(-n2nccn2)c1 [1-199, 6-(3-(2H-1,2,3-Triazol-2-yl)phenyl)-5,7-dimethyl-2-(pyridin-2-yl)-2,6-dihydro-1H-pyrrolo[3,4-d]pyridazin-1-one]
20 | 228 °C | < 0.1 µM | Cc1c2cnn(-c3ncccn3)c(=O)c2c(C)n1-c1cccc(OC2CC2)c1Cl [1-215, 6-(2-Chloro-3-cyclopropoxyphenyl)-5,7-dimethyl-2-(pyrimidin-2-yl)-2,6-dihydro-1H-pyrrolo[3,4-d]pyridazin-1-one]
21 |  | 0.1 to 1 µM | COc1ccnc(-n2ncc3c(C)n(-c4cccc(N5CCC5)c4)c(C)c3c2=O)c1 [1-229]
22 |  | 0.1 to 1 µM | Cc1c(OC(F)F)cccc1-n1c(C)c2cnn(-c3ccccn3)c(=O)c2c1C [1-232]
23 |  | 0.1 to 1 µM | COc1cccc(-n2c(C)c3cnn(-c4ccccn4)c(=O)c3c2C)c1F [1-233]
24 |  | 0.1 to 1 µM | COc1cccc(-n2c(C)c3cnn(-c4ncccn4)c(=O)c3c2C)c1F [1-234]
25 |  | 0.1 to 1 µM | Cc1c2cnn(-c3ccccn3)c(=O)c2c(C)n1-c1cccc(OC2CC2)c1F [1-235]
26 |  | < 0.1 µM | Cc1c2cnn(-c3ncccn3)c(=O)c2c(C)n1-c1cccc(OC2CC2)c1F [1-236]
27 |  | 1 to 10 µM | COc1ccc(-n2c(C)c3cnn(-c4ncccn4)c(=O)c3c2C)cn1 [1-241]

From patent publication US20240262833A1, “FUSED HETEROCYCLIC DERIVATIVES AS NEGATIVE ALLOSTERIC MODULATORS OF MGLU7 RECEPTOR” (Addex Pharma S.A., priority 2021, published 2024)
